In the oligonucleotide strings, read from the 5' end, every base follows the letter of its sugar. An asterisk marks phosphorothioate; unmarked linkages are phosphodiester. Other units and linkages are bracketed, terminal groups are in braces. A string of capitals states the bases alone. e = 2'-O-(2-methoxyethyl) (MOE); [5mC] = 5-methylcytosine; d = 2'-deoxy (DNA)
Assays:
[1] = system: mouse apolipoprotein B mRNA; experiment: Inhibition of mouse apolipoprotein B mRNA levels in primary mouse hepatocytes, real-time PCR; assay type: cell-based; conditions: for % INHIB: Table 3, 150 nM, averages from two experiments; for Percent Inhibition 50 nM: Table 4, 50 nM; for Percent Inhibition 150 nM: Table 4, 150 nM; for Percent Inhibition 300 nM: Table 4, 300 nM
Experimental: Primary mouse hepatocytes were prepared from CD-1 mice purchased from Charles River Labs (Wilmington, Mass.) and were routinely cultured in Hepatoyte Attachment Media (Gibco) supplemented with 10% Fetal Bovine Serum (Gibco/Life Technologies, Gaithersburg, Md.), 250 nM dexamethasone (Sigma), and 10 nM bovine insulin (Sigma). Cells were seeded into 96-well plates (Falcon-Primaria #3872) at a density of 10000 cells/well for use in RT-PCR analysis.
When cells reached 80% confluency, they were treated with oligonucleotide. For cells grown in 96-well plates, wells were washed once with 200 μL OPTI-MEM™-1 reduced-serum medium (Gibco BRL) and then treated with 130 μL of OPTI-MEM™-1 containing 3.75 μg/mL LIPOFECTIN™ (Gibco BRL) and the desired concentration of oligonucleotide. After 4-7 hours of treatment, the medium was replaced with fresh medium. Cells were harvested 16-24 hours after oligonucleotide treatment.
Quantitation of apolipoprotein B mRNA levels was determined by real-time quantitative PCR using the ABI PRISM™ 7700 Sequence Detection System (PE-Applied Biosystems, Foster City, Calif.) according to manufacturer's instructions. This is a closed-tube, non-gel-based, fluorescence detection system which allows high-throughput quantitation of polymerase chain reaction (PCR) products in real-time. As opposed to standard PCR, in which amplification products are quantitated after the PCR is completed, products in real-time quantitative PCR are quantitated as they accumulate. This is accomplished by including in the PCR reaction an oligonucleotide probe that anneals specifically between the forward and reverse PCR primers, and contains two fluorescent dyes. A reporter dye (e.g., JOE, FAM, or VIC, obtained from either Operon Technologies Inc., Alameda, Calif. or PE-Applied Biosystems, Foster City, Calif.) is attached to the 5′ end of the probe and a quencher dye (e.g., TAMRA, obtained from either Operon Technologies Inc., Alameda, Calif. or PE-Applied Biosystems, Foster City, Calif.) is attached to the 3′ end of the probe. When the probe and dyes are intact, reporter dye emission is quenched by the proximity of the 3′ quencher dye. During amplification, annealing of the probe to the target sequence creates a substrate that can be cleaved by the 5′-exonuclease activity of Taq polymerase. […] With each cycle, additional reporter dye molecules are cleaved from their respective probes, and the fluorescence intensity is monitored at regular intervals by laser optics built into the ABI PRISM™ 7700 Sequence Detection System. In each assay, a series of parallel reactions containing serial dilutions of mRNA from untreated control samples generates a standard curve that is used to quantitate the percent inhibition after antisense oligonucleotide treatment of test samples.
Probes and primers to mouse apolipoprotein B were designed to hybridize to a mouse apolipoprotein B sequence, using published sequence information (GenBank accession number M35186, incorporated herein as SEQ ID NO: 10). For mouse apolipoprotein B the PCR primers were: forward primer: CGTGGGCTCCAGCATTCTA (SEQ ID NO: 11) reverse primer: […] (SEQ ID NO: 12) and the PCR probe was: FAM-[…]-TAMRA SEQ ID NO: 13) where FAM (PE-Applied Biosystems, Foster City, Calif.) is the fluorescent reporter dye) and TAMRA (PE-Applied Biosystems, Foster City, Calif.) is the quencher dye. For mouse GAPDH the PCR primers were: forward primer: […] (SEQ ID NO: 14) reverse primer: […] (SEQ ID NO:15) and the PCR probe was: 5′ JOE-[…]-TAMRA 3′ (SEQ ID NO: 16) where JOE (PE-Applied Biosystems, Foster City, Calif.) is the fluorescent reporter dye) and TAMRA (PE-Applied Biosystems, Foster City, Calif.) is the quencher dye.
In accordance with the present invention, a series of oligonucleotides was designed to target different regions of the mouse apolipoprotein B RNA, using published sequence (GenBank accession number M35186, incorporated herein as SEQ ID NO: 10). […]

[2] = LDLr(-/-) mice dose response (Example 44): liver enzyme, cholesterol and triglyceride levels; assay type: in vivo, mouse; conditions: 50 mg/kg i.p. twice a week, six weeks
Experimental: LDLr(−/−) mice, purchased from Taconic (Germantown, N.Y.) were used to evaluate antisense oligonucleotides for their potential to lower apolipoprotein B mRNA or protein levels, as well as phenotypic endpoints associated with apolipoprotein B. LDLr(−/−) mice were separated into groups of males and females. LDLr(−/−) mice were dosed intraperitoneally twice a week for six weeks with either 10, 25, or 50 mg/kg of ISIS 147764 (SEQ ID NO: 109) or ISIS 270906 (SEQ ID NO: 856) which is a 4 base mismatch of ISIS 147764, or with saline, or 20 mg/kg of Atorvastatin. At study termination animals were sacrificed and evaluated for several phenotypic markers.

Row | Substance | % INHIB [1] [%] | other results
1 | 147761 (eG*eT*eT*e[5mC]*eA*dT*dG*dG*dA*dT*dT*d[5mC]*d[5mC]*dT*dT*e[5mC]*eA*eG*eG*eA; antisense) [compound 147761] | 45 | 
2 | 147769 (e[5mC]*eA*eT*eG*e[5mC]*d[5mC]*dT*dG*dG*dA*dA*dG*d[5mC]*d[5mC]*dA*eG*eT*eG*eT*e[5mC]) [compound 147769] | 89 | Percent Inhibition 50 nM [1]: 3%; Percent Inhibition 150 nM [1]: 14%; Percent Inhibition 300 nM [1]: 28%
3 | 147778 (antisense eT*e[5mC]*eA*eG*eA*dT*dA*dT*dA*d[5mC]*dA*dT*dT*dG*dG*e[5mC]*eT*eT*e[5mC]*eA) [compound 147778] | 14 | 
4 | 147498 (eT*eG*eG*eG*e[5mC]*dA*dA*d[5mC]*dG*dA*dT*dA*dT*d[5mC]*dT*eG*eA*eT*eT*eG; antisense) [compound 147498] | 0 | 
5 | 147776 (antisense eG*e[5mC]*eT*eT*eG*dA*dA*dG*dT*dT*d[5mC]*dA*dT*dT*dG*eA*eG*eA*eA*eT) [compound 147776] | 92 | Percent Inhibition 50 nM [1]: 0%; Percent Inhibition 150 nM [1]: 17%; Percent Inhibition 300 nM [1]: 44%
6 | 147774 (antisense eT*eG*eG*e[5mC]*eT*dA*dG*dT*dT*dT*d[5mC]*dA*dA*dT*d[5mC]*e[5mC]*e[5mC]*e[5mC]*eT*eT) [compound 147774] | 84 | 
7 | 147492 (e[5mC]*eA*eA*eT*eG*dG*dA*dA*dT*dG*d[5mC]*dT*dT*dG*dT*e[5mC]*eA*e[5mC]*eT*eG; antisense) [compound 147492] | 68 | 
8 | 147765 (eA*eG*eG*e[5mC]*e[5mC]*d[5mC]*dA*dG*dT*dT*d[5mC]*d[5mC]*dA*dT*dG*eA*e[5mC]*e[5mC]*e[5mC]*eT; antisense) [compound 147765] | 59 | 
9 | 147484 (eT*eT*e[5mC]*eA*eT*d[5mC]*d[5mC]*dG*dA*dG*dA*dA*dG*dT*dT*eG*eG*eG*eA*e[5mC]; antisense) [compound 147484] | 49 | 
10 | 147485 (eA*eT*eT*eT*eG*dG*dG*dA*d[5mC]*dG*dA*dA*dT*dG*dT*eA*eT*eG*e[5mC]*e[5mC]; antisense) [compound 147485] | 64 | 
11 | 147771 (eG*eG*eT*eA*eA*dA*dG*dT*dT*dG*d[5mC]*d[5mC]*d[5mC]*dA*dT*eG*eG*e[5mC]*eT*eG; antisense) [compound 147771] | 68 | 
12 | 147775 (antisense e[5mC]*eT*eG*eT*e[5mC]*dA*dT*dG*dA*d[5mC]*dT*dG*d[5mC]*d[5mC]*d[5mC]*eT*eT*eT*eA*e[5mC]) [compound 147775] | 52 | 
13 | 147507 (eA*eT*eT*eG*eG*d[5mC]*dT*dT*d[5mC]*dA*dT*dT*dG*dG*d[5mC]*eA*eA*e[5mC]*eA*e[5mC]; antisense) [compound 147507] | 81 | 
14 | 147476 (eG*eA*eG*eG*eA*dG*dA*dT*dT*dG*dG*dA*dT*d[5mC]*dT*eT*eA*eA*eG*eG; antisense) [compound 147476] | 13 | 
15 | 147763 (eT*eG*e[5mC]*eG*eA*d[5mC]*dT*dG*dT*dG*dT*d[5mC]*dT*dG*dA*eT*eT*eT*e[5mC]*e[5mC]; antisense) [compound 147763] | 34 | 
16 | 147496 (eA*e[5mC]*e[5mC]*eA*eT*dG*dG*dA*dA*dA*dA*d[5mC]*dT*dG*dG*e[5mC]*eA*eA*e[5mC]*eT; antisense) [compound 147496] | 19 | 
17 | 270906 (antisense GTCCCTCAACATCTGAATGC; listed as DNA, chemistry not given here) [compound 270906] |  | Lipoproteins CHOL ([2]; female LDLr(-/-) mice): 564.6 mg/dL; Lipoproteins HDL ([2]; female LDLr(-/-) mice): 200.0 mg/dL; Lipoproteins LDL ([2]; female LDLr(-/-) mice): 310.0 mg/dL; Lipoproteins TRIG ([2]; female LDLr(-/-) mice): 240.4 mg/dL; Liver Enzymes ALT ([2]; female LDLr(-/-) mice): 88.6 IU/L; Liver Enzymes AST ([2]; female LDLr(-/-) mice): 96.0 IU/L; Lipoproteins CHOL ([2]; male LDLr(-/-) mice): 941.0 mg/dL; Lipoproteins HDL ([2]; male LDLr(-/-) mice): 244.2 mg/dL; Lipoproteins LDL ([2]; male LDLr(-/-) mice): 541.9 mg/dL; Lipoproteins TRIG ([2]; male LDLr(-/-) mice): 844.8 mg/dL; Liver Enzymes ALT ([2]; male LDLr(-/-) mice): 348.0 IU/L; Liver Enzymes AST ([2]; male LDLr(-/-) mice): 167.4 IU/L
18 | 147768 (e[5mC]*e[5mC]*e[5mC]*eA*eT*dA*dT*dG*dG*dA*dG*dA*dA*dA*dT*e[5mC]*e[5mC]*eT*eT*e[5mC]; antisense) [compound 147768] | 24 | 
19 | 147770 (eG*eT*eG*eT*eT*dG*dA*dA*dT*d[5mC]*d[5mC]*d[5mC]*dT*dT*dG*eA*eA*eA*eT*e[5mC]; antisense) [compound 147770] | 67 | 
20 | 147773 (antisense e[5mC]*eA*eT*e[5mC]*eA*dG*dA*d[5mC]*dG*dT*dG*dA*dT*dG*dT*eT*e[5mC]*e[5mC]*e[5mC]*eT) [compound 147773] | 85 | 
21 | 147480 (eT*e[5mC]*eT*e[5mC]*eA*d[5mC]*d[5mC]*d[5mC]*dT*d[5mC]*dA*dT*dG*d[5mC]*dT*e[5mC]*e[5mC]*eA*eT*eT; antisense) [compound 147480] | 54 | 
22 | 147494 (eA*e[5mC]*eA*eA*e[5mC]*dT*dG*dG*dG*dA*dT*dA*dG*dT*dG*eT*eA*eG*e[5mC]*e[5mC]; antisense) [compound 147494] | 84 | 
23 | 147759 (eA*eG*eG*eT*eG*dA*dG*dG*dA*dA*dG*dT*dT*dG*dG*eA*eA*eT*eT*e[5mC]; antisense) [compound 147759] | 19 | 
24 | 147502 (eA*eT*eG*eG*eG*dA*dG*d[5mC]*dA*dT*dG*dG*dA*dG*dG*eT*eT*eG*eG*e[5mC]; antisense) [compound 147502] | 16 | 

Source: patent US7803930B2, “Antisense modulation of apolipoprotein B-expression” (Isis Pharmaceuticals, Inc., priority 2002, dated 2010)
